In ChEMBL document CHEMBL3991601, “The target landscape of clinical kinase drugs” (Science, 2017):
Calls of active or inactive are those of the source. Cut-off read from the data, not from the text of the source, for most assays here: actives have a measured Kd and inactives only a lower limit.

Assays:
Activin receptor type-2B = Activin receptor type-2B (Homo sapiens, UniProt Q13705)
[1] = target: RAC-alpha serine/threonine-protein kinase (Homo sapiens, UniProt P31749)
[2] = target: T1, Adenine phosphoribosyltransferase (Homo sapiens, UniProt P07741)
T1 sequence (P07741 whole entry): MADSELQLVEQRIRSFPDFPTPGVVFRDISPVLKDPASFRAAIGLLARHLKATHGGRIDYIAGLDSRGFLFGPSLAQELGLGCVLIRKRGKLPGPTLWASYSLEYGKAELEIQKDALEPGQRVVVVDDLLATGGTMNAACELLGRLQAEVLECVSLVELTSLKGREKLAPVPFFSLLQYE

[3] = target: Calcium/calmodulin-dependent protein kinase type II subunit gamma (Homo sapiens, UniProt Q13555)
[4] = target: Cyclin-dependent kinase 2 (Homo sapiens, UniProt P24941)
[5] = target: Cyclin-dependent kinase 4 (Homo sapiens, UniProt P11802)
[6] = target: Cyclin-dependent kinase 5 (Homo sapiens, UniProt Q00535)
[7] = target: Citron Rho-interacting kinase (Homo sapiens, UniProt O14578)
[8] = target: Tyrosine-protein kinase CSK (Homo sapiens, UniProt P41240)
[9] = target: Casein kinase I isoform delta (Homo sapiens, UniProt P48730)
[10] = target: Glycogen synthase kinase-3 beta (Homo sapiens, UniProt P49841)
GTP-binding protein 4 = GTP-binding protein 4 (Homo sapiens, UniProt Q9BZE4)
LIM domain kinase 1 = LIM domain kinase 1 (Homo sapiens, UniProt P53667)
[11] = target: Mitogen-activated protein kinase kinase kinase kinase 1 (Homo sapiens, UniProt Q92918)
[12] = target: T2, Mitogen-activated protein kinase 15 (Homo sapiens, UniProt Q8TD08)
T2 sequence (Q8TD08 whole entry): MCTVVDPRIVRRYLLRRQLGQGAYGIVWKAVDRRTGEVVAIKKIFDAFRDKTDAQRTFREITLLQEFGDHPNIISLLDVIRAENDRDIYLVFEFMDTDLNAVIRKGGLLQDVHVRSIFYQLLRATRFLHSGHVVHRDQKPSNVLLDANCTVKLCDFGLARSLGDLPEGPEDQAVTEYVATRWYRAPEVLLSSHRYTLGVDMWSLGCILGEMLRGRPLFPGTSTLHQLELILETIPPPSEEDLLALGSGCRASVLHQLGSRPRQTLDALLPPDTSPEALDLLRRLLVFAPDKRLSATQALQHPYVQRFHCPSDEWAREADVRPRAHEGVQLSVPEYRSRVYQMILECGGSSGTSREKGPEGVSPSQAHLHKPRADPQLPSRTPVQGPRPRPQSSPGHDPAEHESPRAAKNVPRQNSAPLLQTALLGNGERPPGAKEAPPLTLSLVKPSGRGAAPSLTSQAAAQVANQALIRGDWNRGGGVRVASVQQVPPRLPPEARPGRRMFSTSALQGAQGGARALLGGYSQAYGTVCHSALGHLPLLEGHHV

[13] = target: Membrane-associated progesterone receptor component 1 (Homo sapiens, UniProt O00264)
[14] = target: T3, Serine/threonine-protein kinase PLK4 (Homo sapiens, UniProt O00444)
T3 sequence (O00444 whole entry): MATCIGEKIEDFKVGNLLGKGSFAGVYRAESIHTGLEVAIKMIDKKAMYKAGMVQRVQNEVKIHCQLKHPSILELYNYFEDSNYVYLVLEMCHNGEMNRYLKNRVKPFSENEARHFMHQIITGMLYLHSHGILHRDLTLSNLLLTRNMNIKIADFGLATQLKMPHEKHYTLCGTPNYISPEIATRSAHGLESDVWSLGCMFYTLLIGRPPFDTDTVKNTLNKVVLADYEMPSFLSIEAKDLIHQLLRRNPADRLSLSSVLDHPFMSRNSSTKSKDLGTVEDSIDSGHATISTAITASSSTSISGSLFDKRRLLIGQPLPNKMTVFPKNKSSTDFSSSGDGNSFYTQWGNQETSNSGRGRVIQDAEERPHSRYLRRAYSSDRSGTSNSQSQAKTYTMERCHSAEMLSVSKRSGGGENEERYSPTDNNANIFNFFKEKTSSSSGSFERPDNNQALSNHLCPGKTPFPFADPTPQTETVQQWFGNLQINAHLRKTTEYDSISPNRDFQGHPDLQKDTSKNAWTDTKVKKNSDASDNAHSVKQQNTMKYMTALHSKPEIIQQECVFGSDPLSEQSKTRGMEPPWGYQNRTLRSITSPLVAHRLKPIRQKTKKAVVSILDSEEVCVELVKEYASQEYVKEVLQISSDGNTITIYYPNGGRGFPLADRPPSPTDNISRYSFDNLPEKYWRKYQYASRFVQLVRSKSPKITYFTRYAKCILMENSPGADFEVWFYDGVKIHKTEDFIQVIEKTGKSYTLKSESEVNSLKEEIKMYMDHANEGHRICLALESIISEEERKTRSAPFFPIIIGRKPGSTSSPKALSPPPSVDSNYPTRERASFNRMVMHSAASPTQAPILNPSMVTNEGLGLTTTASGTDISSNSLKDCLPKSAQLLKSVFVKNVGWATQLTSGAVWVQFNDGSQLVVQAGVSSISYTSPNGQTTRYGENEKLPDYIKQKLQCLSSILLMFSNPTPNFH

[15] = target: Ras-related protein Rab-6A (Homo sapiens, UniProt P20340)
[16] = target: GTP-binding nuclear protein Ran (Homo sapiens, UniProt P62826)
Note: in the data inactive means no Kd found up to 30 µM.

LIM domain kinase 1, sequence (P53667 whole entry, the tested form may be a part): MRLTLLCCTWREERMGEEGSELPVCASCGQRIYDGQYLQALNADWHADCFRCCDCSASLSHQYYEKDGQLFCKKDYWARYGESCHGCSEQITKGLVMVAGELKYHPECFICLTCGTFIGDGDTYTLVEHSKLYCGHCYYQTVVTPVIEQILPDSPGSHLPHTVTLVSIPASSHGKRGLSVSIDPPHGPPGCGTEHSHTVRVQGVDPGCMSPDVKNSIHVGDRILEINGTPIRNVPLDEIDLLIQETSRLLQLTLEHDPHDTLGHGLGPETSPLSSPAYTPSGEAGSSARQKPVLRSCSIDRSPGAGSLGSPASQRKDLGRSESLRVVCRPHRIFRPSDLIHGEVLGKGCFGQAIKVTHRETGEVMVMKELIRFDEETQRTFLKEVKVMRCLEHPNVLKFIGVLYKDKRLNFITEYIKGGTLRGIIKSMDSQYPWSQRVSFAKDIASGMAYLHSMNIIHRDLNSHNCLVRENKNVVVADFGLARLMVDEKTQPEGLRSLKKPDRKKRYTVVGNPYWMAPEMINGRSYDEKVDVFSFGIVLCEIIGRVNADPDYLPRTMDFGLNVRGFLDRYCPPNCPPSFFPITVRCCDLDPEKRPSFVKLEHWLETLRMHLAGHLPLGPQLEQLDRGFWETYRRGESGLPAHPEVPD
Activin receptor type-2B, sequence (Q13705 whole entry): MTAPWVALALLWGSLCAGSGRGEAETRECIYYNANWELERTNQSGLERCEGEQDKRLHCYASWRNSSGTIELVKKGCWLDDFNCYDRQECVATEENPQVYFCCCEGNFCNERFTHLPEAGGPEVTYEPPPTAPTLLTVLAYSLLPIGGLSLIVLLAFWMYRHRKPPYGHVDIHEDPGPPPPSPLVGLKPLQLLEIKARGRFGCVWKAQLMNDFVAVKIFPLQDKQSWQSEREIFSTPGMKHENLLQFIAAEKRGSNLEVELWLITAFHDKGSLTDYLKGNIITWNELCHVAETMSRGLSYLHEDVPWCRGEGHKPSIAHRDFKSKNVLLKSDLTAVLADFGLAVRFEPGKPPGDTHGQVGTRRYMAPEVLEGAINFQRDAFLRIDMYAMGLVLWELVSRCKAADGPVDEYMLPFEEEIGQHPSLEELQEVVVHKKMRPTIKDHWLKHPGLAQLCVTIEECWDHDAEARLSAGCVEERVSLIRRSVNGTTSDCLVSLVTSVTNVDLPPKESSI
RAC-alpha serine/threonine-protein kinase, sequence (P31749 whole entry): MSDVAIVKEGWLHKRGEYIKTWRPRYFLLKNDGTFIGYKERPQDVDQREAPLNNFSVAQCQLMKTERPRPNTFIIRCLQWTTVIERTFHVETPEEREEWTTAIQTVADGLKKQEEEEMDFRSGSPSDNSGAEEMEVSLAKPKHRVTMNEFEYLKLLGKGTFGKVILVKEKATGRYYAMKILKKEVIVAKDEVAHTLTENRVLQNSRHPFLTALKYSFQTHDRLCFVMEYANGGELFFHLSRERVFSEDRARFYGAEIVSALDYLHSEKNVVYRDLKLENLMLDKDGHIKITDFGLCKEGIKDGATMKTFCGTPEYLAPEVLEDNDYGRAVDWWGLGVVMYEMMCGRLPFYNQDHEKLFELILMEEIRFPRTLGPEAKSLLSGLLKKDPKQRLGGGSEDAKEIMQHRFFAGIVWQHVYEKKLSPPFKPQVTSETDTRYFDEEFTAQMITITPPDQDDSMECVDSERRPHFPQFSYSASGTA
Mitogen-activated protein kinase kinase kinase kinase 1, sequence (Q92918 whole entry): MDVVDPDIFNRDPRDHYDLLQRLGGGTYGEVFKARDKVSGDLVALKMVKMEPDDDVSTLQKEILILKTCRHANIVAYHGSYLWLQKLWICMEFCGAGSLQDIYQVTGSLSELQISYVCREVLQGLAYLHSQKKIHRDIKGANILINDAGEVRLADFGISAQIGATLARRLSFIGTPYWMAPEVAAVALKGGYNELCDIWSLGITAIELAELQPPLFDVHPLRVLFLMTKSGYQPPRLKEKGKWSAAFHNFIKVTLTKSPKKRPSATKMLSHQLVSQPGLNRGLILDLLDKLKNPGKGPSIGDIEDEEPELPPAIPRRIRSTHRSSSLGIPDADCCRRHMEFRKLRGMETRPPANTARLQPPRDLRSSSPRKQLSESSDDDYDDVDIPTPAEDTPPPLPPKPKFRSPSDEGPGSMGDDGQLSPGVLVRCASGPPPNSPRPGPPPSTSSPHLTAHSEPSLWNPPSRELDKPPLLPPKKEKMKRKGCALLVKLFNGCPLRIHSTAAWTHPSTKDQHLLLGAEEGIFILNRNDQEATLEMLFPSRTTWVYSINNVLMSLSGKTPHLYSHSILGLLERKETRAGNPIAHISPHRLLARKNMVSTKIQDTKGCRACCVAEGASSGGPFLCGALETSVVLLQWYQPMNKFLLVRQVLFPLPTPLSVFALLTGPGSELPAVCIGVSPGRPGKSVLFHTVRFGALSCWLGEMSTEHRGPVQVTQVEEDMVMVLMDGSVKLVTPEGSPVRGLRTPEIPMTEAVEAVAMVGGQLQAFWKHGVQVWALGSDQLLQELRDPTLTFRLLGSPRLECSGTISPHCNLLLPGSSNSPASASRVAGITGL
Citron Rho-interacting kinase, sequence (O14578 whole entry): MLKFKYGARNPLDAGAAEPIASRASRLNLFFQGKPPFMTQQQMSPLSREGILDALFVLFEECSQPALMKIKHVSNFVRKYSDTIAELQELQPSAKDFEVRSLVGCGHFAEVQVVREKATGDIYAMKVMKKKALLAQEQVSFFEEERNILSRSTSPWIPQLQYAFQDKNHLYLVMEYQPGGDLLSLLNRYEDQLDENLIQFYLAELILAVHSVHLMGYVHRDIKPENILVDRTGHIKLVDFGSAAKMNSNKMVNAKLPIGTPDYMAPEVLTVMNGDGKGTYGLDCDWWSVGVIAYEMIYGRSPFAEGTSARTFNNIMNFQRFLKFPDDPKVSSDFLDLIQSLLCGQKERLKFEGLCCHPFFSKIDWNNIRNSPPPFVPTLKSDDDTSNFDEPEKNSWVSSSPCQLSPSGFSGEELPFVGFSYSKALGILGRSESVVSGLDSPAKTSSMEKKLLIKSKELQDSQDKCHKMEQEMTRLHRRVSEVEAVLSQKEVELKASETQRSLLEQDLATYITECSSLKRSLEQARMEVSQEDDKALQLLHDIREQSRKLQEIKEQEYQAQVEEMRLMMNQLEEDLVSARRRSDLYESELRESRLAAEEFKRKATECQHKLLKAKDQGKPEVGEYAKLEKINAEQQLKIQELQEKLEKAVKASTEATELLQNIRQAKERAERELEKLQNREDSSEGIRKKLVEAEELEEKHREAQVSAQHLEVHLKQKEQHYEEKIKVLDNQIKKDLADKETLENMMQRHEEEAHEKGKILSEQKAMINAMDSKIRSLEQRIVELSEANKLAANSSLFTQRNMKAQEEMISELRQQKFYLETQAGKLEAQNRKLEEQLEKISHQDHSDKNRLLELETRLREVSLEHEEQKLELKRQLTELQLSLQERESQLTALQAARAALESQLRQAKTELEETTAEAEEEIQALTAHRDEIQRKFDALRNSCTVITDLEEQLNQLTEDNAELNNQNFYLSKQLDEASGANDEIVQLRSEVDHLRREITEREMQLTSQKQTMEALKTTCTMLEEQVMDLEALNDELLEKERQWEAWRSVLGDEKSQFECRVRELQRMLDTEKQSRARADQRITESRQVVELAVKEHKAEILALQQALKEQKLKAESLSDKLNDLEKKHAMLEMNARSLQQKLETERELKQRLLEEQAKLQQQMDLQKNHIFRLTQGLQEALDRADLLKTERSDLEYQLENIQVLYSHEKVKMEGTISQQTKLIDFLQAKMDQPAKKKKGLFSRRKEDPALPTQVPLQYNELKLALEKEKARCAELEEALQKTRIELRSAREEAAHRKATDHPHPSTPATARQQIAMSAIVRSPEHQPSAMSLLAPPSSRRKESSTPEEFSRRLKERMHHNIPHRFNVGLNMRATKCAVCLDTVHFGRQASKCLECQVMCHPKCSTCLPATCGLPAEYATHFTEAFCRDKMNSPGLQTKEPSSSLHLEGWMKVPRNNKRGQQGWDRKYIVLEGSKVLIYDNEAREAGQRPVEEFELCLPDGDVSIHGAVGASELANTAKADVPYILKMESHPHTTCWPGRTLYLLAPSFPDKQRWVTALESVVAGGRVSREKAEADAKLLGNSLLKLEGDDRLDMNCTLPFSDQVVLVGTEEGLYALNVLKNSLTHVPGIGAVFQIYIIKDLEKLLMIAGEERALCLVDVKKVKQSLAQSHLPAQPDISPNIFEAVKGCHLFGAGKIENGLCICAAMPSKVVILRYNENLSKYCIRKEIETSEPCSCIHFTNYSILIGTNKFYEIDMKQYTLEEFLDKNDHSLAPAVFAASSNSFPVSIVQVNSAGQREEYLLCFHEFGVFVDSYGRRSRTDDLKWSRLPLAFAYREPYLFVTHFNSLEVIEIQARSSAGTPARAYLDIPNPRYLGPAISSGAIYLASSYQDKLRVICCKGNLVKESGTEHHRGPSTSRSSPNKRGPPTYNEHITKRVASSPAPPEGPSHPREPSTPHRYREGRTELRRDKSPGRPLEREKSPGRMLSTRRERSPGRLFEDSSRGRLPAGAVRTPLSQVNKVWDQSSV
Cyclin-dependent kinase 5, sequence (Q00535 whole entry): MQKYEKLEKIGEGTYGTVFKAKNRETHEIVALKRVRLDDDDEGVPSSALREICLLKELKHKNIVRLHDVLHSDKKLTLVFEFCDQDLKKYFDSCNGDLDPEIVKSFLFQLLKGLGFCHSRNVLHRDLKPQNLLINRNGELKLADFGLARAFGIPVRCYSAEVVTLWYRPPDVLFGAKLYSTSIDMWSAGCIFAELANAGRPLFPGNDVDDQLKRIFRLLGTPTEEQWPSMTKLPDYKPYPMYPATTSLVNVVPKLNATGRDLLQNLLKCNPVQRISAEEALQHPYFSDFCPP
Ras-related protein Rab-6A, sequence (P20340 whole entry): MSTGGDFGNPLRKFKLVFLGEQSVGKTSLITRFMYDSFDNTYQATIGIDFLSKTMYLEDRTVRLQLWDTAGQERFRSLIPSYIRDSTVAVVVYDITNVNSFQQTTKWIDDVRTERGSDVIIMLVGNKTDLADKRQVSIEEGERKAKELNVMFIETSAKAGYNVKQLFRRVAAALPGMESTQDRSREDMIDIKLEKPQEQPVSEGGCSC

| Structure (SMILES) | Kd (Activin receptor type-2B) | Kd [1] | Kd [2] | Kd [3] | Kd [4] | Kd [5] | Kd [6] | Kd [7] | Kd [8] | Kd [9] | Kd [10] | Kd (GTP-binding protein 4) | Kd (LIM domain kinase 1) | Kd [11] | Kd [13] | Kd [14] | Kd [15] | Kd [16] | Kd [12] |
| --- | --- | --- | --- | --- | --- | --- | --- | --- | --- | --- | --- | --- | --- | --- | --- | --- | --- | --- | --- |
| COc1cc([C@@H]2c3cc4c(cc3[C@H](O)[C@H]3COC(=O)[C@@H]23)OCO4)cc(OC)c1OC [AXL-1717] | > 30 µM (inactive) | > 30 µM (inactive) | > 30 µM (inactive) | > 30 µM (inactive) | > 30 µM (inactive) | > 30 µM (inactive) | > 30 µM (inactive) | > 30 µM (inactive) | > 30 µM (inactive) | > 30 µM (inactive) | > 30 µM (inactive) | > 30 µM (inactive) | > 30 µM (inactive) | > 30 µM (inactive) | > 30 µM (inactive) | > 30 µM (inactive) | > 30 µM (inactive) | > 30 µM (inactive) | > 30 µM (inactive) |
| CCn1c(C(=O)N(C2CC2)C2CC2)cc2c3c(ncn3C)c(Nc3cc(C)n(C)n3)nc21 [BMS-911543] | > 30 µM (inactive) | > 30 µM (inactive) | > 30 µM (inactive) | > 30 µM (inactive) | > 30 µM (inactive) | > 30 µM (inactive) | > 30 µM (inactive) | > 30 µM (inactive) | > 30 µM (inactive) | > 30 µM (inactive) | > 30 µM (inactive) | > 30 µM (inactive) | > 30 µM (inactive) | > 30 µM (inactive) | > 30 µM (inactive) | > 30 µM (inactive) | > 30 µM (inactive) | > 30 µM (inactive) | > 30 µM (inactive) |
| O=C(Nc1nc2cccc(-c3ccc(CN4CCS(=O)(=O)CC4)cc3)n2n1)C1CC1 [FILGOTINIB] | > 30 µM (inactive) | > 30 µM (inactive) | > 30 µM (inactive) | > 30 µM (inactive) | > 30 µM (inactive) | > 30 µM (inactive) | > 30 µM (inactive) | > 30 µM (inactive) | > 30 µM (inactive) | > 30 µM (inactive) | > 30 µM (inactive) | > 30 µM (inactive) | > 30 µM (inactive) | > 30 µM (inactive) | > 30 µM (inactive) | > 30 µM (inactive) | > 30 µM (inactive) | > 30 µM (inactive) | > 30 µM (inactive) |
| CO[C@H]1C[C@@H]2CC[C@@H](C)[C@@](O)(O2)C(=O)C(=O)N2CCCC[C@H]2C(=O)O[C@H]([C@H](C)C[C@@H]2CC[C@@H](OP(C)(C)=O)[C@H](OC)C2)CC(=O)[C@H](C)/C=C(\C)[C@@H](O)[C@@H](OC)C(=O)[C@H](C)C[C@H](C)/C=C/C=C/C=C/1C [RIDAFOROLIMUS] | > 30 µM (inactive) | > 30 µM (inactive) | > 30 µM (inactive) | > 30 µM (inactive) | > 30 µM (inactive) | > 30 µM (inactive) | > 30 µM (inactive) | > 30 µM (inactive) | > 30 µM (inactive) | > 30 µM (inactive) | > 30 µM (inactive) | > 30 µM (inactive) | > 30 µM (inactive) | > 30 µM (inactive) | > 30 µM (inactive) | > 30 µM (inactive) | > 30 µM (inactive) | > 30 µM (inactive) | > 30 µM (inactive) |

Further lines, with some results ahead:

| Kd (Activin receptor type-2B) | Kd [1] | Kd [2] | Kd [3] | Kd [4] | Kd [5] | Kd [6] | Kd [7] | Kd [8] | Kd [9] | Kd [10] | Kd (GTP-binding protein 4) | Kd (LIM domain kinase 1) | Kd [11] | Kd [13] | Kd [14] | Kd [15] | Kd [16] | Structure (SMILES) | Kd [12] |
| --- | --- | --- | --- | --- | --- | --- | --- | --- | --- | --- | --- | --- | --- | --- | --- | --- | --- | --- | --- |
| > 30 µM (inactive) | > 30 µM (inactive) | > 30 µM (inactive) | > 30 µM (inactive) | > 30 µM (inactive) | > 30 µM (inactive) | > 30 µM (inactive) | > 30 µM (inactive) | > 30 µM (inactive) | > 30 µM (inactive) | > 30 µM (inactive) | > 30 µM (inactive) | > 30 µM (inactive) | > 30 µM (inactive) | > 30 µM (inactive) | > 30 µM (inactive) | > 30 µM (inactive) | > 30 µM (inactive) | C[C@@H](Oc1cc(C(=O)Nc2ccc(C(=O)N3CCN(C)CC3)cc2)nnc1N)c1c(Cl)ccc(F)c1Cl | > 30 µM (inactive) |
| > 30 µM (inactive) | > 30 µM (inactive) | > 30 µM (inactive) | > 30 µM (inactive) | > 30 µM (inactive) | > 30 µM (inactive) | > 30 µM (inactive) | > 30 µM (inactive) | > 30 µM (inactive) | > 30 µM (inactive) | > 30 µM (inactive) |  | > 30 µM (inactive) | 0.875 µM (active) | > 30 µM (inactive) | 0.333 µM (active) | > 30 µM (inactive) | > 30 µM (inactive) | CCNC(=O)C#Cc1ccc2c(c1)NC(=O)/C2=C(\Nc1ccc(CN(C)C)cc1)c1ccccc1 | > 30 µM (inactive) |
| > 30 µM (inactive) | > 30 µM (inactive) | > 30 µM (inactive) | > 30 µM (inactive) | > 30 µM (inactive) | > 30 µM (inactive) | > 30 µM (inactive) | > 30 µM (inactive) | > 30 µM (inactive) | > 30 µM (inactive) | > 30 µM (inactive) | > 30 µM (inactive) | > 30 µM (inactive) | > 30 µM (inactive) | > 30 µM (inactive) | > 30 µM (inactive) | > 30 µM (inactive) | > 30 µM (inactive) | Cc1csc(-c2nnc(Nc3ccc(Oc4ncccc4-c4ccnc(N)n4)cc3)c3ccccc23)c1 [AMG-900] | > 30 µM (inactive) |
| > 30 µM (inactive) | > 30 µM (inactive) | > 30 µM (inactive) | > 30 µM (inactive) | > 30 µM (inactive) | > 30 µM (inactive) | > 30 µM (inactive) | > 30 µM (inactive) | > 30 µM (inactive) | > 30 µM (inactive) | > 30 µM (inactive) | > 30 µM (inactive) | > 30 µM (inactive) | > 30 µM (inactive) | > 30 µM (inactive) | > 30 µM (inactive) | > 30 µM (inactive) | > 30 µM (inactive) | COCC(=O)NC/C=C/c1ccc2ncnc(Nc3ccc(Oc4ccc(C)nc4)c(C)c3)c2c1 [CP-724714] | > 30 µM (inactive) |
| > 30 µM (inactive) | > 30 µM (inactive) | > 30 µM (inactive) | > 30 µM (inactive) | > 30 µM (inactive) | > 30 µM (inactive) | > 30 µM (inactive) | > 30 µM (inactive) | > 30 µM (inactive) | > 30 µM (inactive) | > 30 µM (inactive) | > 30 µM (inactive) | > 30 µM (inactive) | > 30 µM (inactive) | > 30 µM (inactive) | > 30 µM (inactive) | > 30 µM (inactive) | > 30 µM (inactive) | CN(C[C@@H]1COCCO1)S(=O)(=O)Nc1ccc2ccc3ncc(-c4cnn(C)c4)cc3c(=O)c2c1 [MK-2461] | > 30 µM (inactive) |
